Experiments:
Format in all cases: cell-based
[1] = target: T1, ATP-dependent translocase ABCB1 (Homo sapiens, UniProt P08183); experiment: Inhibition of ABCB1 in human SW620/AD300 cells assessed as potentiation of paclitaxel-induced cytotoxicity by measuring fold reduction in paclitaxel IC50 at 2 uM preincubated for 4 hrs followed by paclitaxel addition measured after 72 hrs by MTT assay
[2] = target: T1, ATP-dependent translocase ABCB1; experiment: Inhibition of ABCB1 in human SW620/AD300 cells assessed as potentiation of paclitaxel-induced cytotoxicity by measuring fold reduction in paclitaxel IC50 at 2 uM preincubated for 4 hrs followed by paclitaxel addition measured after 72 hrs by MTT assay relative to verapamil
[3] = target: T1, ATP-dependent translocase ABCB1; experiment: Inhibition of ABCB1 (unknown origin) expressed in HEK293T cells assessed as potentiation of paclitaxel-induced cytotoxicity by measuring fold reduction in paclitaxel IC50 at 2 uM preincubated for 4 hrs followed by paclitaxel addition measured after 72 hrs by MTT assay
[4] = target: T1, ATP-dependent translocase ABCB1; experiment: Binding affinity at ABCB1 in human SW620/AD300 cells assessed as thermal stabilization at 2 uM preincubated for 4 hrs followed by incubation 40 to 61 degC for 3 mins by CETSA; settings: 0.05 h
[5] = target: T1, ATP-dependent translocase ABCB1; experiment: Inhibition of ABCB1 in human SW620/AD300 cells assessed as reduction in Rh123 efflux at 2 uM treated followed by Rh123 addition in Rh123 free medium for 30 to 120 mins by flow cytometry
[6] = target: T1, ATP-dependent translocase ABCB1; experiment: Inhibition of ABCB1 in human SW620/AD300 cells assessed as reduction in paclitaxel efflux at 2 uM treated followed by 2 hrs of paclitaxel treatment in paclitaxel free medium for 30 mins by flow cytometry
[7] = target: T1, ATP-dependent translocase ABCB1; experiment: Inhibition of ABCB1 in human SW620/AD300 cells assessed as potentiation of colchicine-induced cytotoxicity by measuring fold reduction in colchicine IC50 at 2 uM preincubated for 4 hrs followed by […] measured after 72 hrs by MTT assay relative to verapamil
[8] = target: T1, ATP-dependent translocase ABCB1; experiment: Inhibition of ABCB1 in human SW620/AD300 cells assessed as potentiation of colchicine-induced cytotoxicity by measuring fold reduction in colchicine IC50 at 2 uM preincubated for 4 hrs followed by […] measured after 72 hrs by MTT assay
[9] = target: T1, ATP-dependent translocase ABCB1; experiment: Inhibition of ABCB1 in human SW620/AD300 cells assessed as increase in Rh123 accumulation at 2 uM preincubated or 4 hrs followed by Rh123 addition measured after 30 mins by flow cytometry; settings: 0.5 h
[10] = target: T1, ATP-dependent translocase ABCB1; experiment: Inhibition of ABCB1 (unknown origin) expressed in HEK293T cells assessed as potentiation of colchicine-induced cytotoxicity by measuring fold reduction in colchicine IC50 at 2 uM preincubated for 4 hrs followed by […] measured after 72 hrs by MTT assay

T1 sequence (P08183 whole entry): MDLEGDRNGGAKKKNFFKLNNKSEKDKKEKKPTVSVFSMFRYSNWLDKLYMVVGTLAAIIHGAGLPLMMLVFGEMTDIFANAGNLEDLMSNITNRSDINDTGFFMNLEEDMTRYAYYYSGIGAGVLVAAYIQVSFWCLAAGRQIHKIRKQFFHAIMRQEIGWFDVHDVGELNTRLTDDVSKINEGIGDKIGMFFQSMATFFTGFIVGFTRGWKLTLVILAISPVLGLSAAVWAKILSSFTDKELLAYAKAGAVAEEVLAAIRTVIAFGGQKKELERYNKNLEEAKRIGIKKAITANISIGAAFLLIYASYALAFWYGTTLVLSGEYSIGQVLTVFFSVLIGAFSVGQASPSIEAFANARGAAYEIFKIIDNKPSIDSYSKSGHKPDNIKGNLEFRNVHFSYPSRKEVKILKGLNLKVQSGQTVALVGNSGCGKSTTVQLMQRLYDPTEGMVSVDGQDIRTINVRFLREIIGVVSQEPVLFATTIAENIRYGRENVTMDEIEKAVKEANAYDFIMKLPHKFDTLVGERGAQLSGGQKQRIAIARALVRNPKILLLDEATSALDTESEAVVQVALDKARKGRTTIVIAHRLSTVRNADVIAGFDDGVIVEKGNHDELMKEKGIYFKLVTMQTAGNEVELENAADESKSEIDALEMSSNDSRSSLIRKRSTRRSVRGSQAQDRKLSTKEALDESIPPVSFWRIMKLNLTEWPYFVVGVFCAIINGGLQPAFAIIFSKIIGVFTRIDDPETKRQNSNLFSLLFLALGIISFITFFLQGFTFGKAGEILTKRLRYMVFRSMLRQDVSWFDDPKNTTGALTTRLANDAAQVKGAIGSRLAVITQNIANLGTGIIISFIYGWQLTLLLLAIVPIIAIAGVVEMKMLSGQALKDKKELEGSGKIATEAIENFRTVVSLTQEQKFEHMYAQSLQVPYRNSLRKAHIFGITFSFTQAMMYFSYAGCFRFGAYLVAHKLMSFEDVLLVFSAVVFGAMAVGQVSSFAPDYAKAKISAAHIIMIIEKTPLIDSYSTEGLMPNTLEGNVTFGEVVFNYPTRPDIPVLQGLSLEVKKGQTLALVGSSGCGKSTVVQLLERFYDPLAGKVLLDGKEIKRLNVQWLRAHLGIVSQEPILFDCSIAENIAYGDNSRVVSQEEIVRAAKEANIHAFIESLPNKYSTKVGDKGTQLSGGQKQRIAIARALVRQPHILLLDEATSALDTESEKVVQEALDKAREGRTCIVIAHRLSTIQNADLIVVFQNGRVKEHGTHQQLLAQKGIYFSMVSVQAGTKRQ

Row | SMILES | fold change (FC) [1] | other results
1 | C#CCSc1nc(Nc2ccccc2Cl)c(C#N)c(-c2ccccc2)n1 | 1.32 | –
2 | C#CCSc1nc(Nc2ccc(OC)cc2)c(C#N)c(-c2ccccc2)n1 | 1.92 | –
3 | COc1ccc(Nc2nc(SCc3cn(Cc4ccccc4Cl)nn3)nc(-c3ccccc3)c2C#N)cc1 | 6.7 | –
4 | C#CCSc1nc(Nc2cccc(C(F)(F)F)c2)c(C#N)c(-c2ccccc2)n1 | 1.2 | –
5 | N#Cc1c(Nc2cccc(C(F)(F)F)c2)nc(SCc2cn(Cc3ccccc3Cl)nn2)nc1-c1ccccc1 | 5.84 | –
6 | N#Cc1c(Nc2ccccc2Cl)nc(SCc2cn(Cc3ccccc3Cl)nn2)nc1-c1ccccc1 | 24.06 | –
7 | C#CCSc1nc(Nc2ccc(Cl)cc2)c(C#N)c(-c2ccccc2)n1 | 1.64 | –
8 | N#Cc1c(Nc2ccc(Cl)cc2)nc(SCc2cn(Cc3ccccc3Cl)nn2)nc1-c1ccccc1 | 2.02 | –
9 | C#CCSc1nc(Nc2cccc(Cl)c2)c(C#N)c(-c2ccccc2)n1 | 1.36 | –
10 | N#Cc1c(Nc2cccc(Cl)c2)nc(SCc2cn(Cc3ccccc3Cl)nn2)nc1-c1ccccc1 | 21.52 | –
11 | COc1ccccc1Nc1nc(SCc2cn(Cc3ccccc3Cl)nn2)nc(-c2ccccc2)c1C#N | 2.29 | –
12 | Cc1cccc(Nc2nc(SCc3cn(Cc4ccccc4Cl)nn3)nc(-c3ccccc3)c2C#N)c1 | 8.7 | –
13 | N#Cc1c(Nc2cccc([N+](=O)[O-])c2)nc(SCc2cn(Cc3ccccc3Cl)nn2)nc1-c1ccccc1 | 5.68 | –
14 | N#Cc1c(Nc2ccccc2F)nc(SCc2cn(Cc3ccccc3Cl)nn2)nc1-c1ccccc1 | 8.7 | –
15 | N#Cc1c(Nc2ccc(F)cc2)nc(SCc2cn(Cc3ccccc3Cl)nn2)nc1-c1ccccc1 | 1.01 | –
16 | Cc1ccccc1Nc1nc(SCc2cn(Cc3ccccc3Cl)nn2)nc(-c2ccccc2)c1C#N | 5.6 | –

Row | SMILES | fold change (FC) [1] | other results
17 | N#Cc1c(Nc2ccccc2)nc(SCc2cn(Cc3ccccc3Cl)nn2)nc1-c1ccccc1 | 7.86 | –
18 | Cc1ccccc1Nc1nc(SCc2cn(Cc3ccc(Cl)cc3)nn2)nc(-c2ccccc2)c1C#N | 136.33 | fold change (FC) [2]: 7; fold change (FC) [3]: 4.53; Activity [4]: Active; inhibition (INH) [5]: Active; inhibition (INH) [6]: Active; fold change (FC) [7]: 2; fold change (FC) [8]: 5.04; inhibition (INH) [9]: Active; fold change (FC) [10]: 31.31
19 | Cc1ccc(Cn2cc(CSc3nc(Nc4ccccc4C)c(C#N)c(-c4ccccc4)n3)nn2)cc1 | 4.44 | –
20 | Cc1ccc(Nc2nc(SCc3cn(Cc4ccc(Cl)cc4)nn3)nc(-c3ccccc3)c2C#N)cc1 | 8.7 | –
21 | Cc1ccc(Nc2nc(SCc3cn(Cc4ccc(F)cc4)nn3)nc(-c3ccccc3)c2C#N)cc1 | 1.03 | –
22 | N#Cc1c(Nc2ccccc2F)nc(SCc2cn(Cc3ccc(Cl)cc3)nn2)nc1-c1ccccc1 | 1.35 | –
23 | Cc1ccc(Cn2cc(CSc3nc(Nc4ccccc4F)c(C#N)c(-c4ccccc4)n3)nn2)cc1 | 1 | –
24 | Cc1ccc(Cn2cc(CSc3nc(Nc4ccc(C)cc4)c(C#N)c(-c4ccccc4)n3)nn2)cc1 | 4.35 | –
25 | Cc1ccc(Cn2cc(CSc3nc(Nc4ccccc4Cl)c(C#N)c(-c4ccccc4)n3)nn2)cc1 | 1.09 | –
26 | Cc1ccc(Nc2nc(SCc3cn(Cc4ccccc4Cl)nn3)nc(-c3ccccc3)c2C#N)cc1 | 3.58 | –
27 | Cc1ccc(Nc2nc(SCc3cn(Cc4ccccc4Cl)nn3)nc(-c3ccc(C(C)C)cc3)c2C#N)cc1 | 51.12 | –
28 | Cc1ccc(Nc2nc(SCc3cn(Cc4ccccc4Cl)nn3)nc(-c3ccc(C)cc3)c2C#N)cc1 | 17.04 | –
29 | COc1cc(-c2nc(SCc3cn(Cc4ccccc4Cl)nn3)nc(Nc3ccc(C)cc3)c2C#N)cc(OC)c1OC | 34.08 | –
30 | Cc1ccc(Nc2nc(SCc3cn(Cc4ccccc4Cl)nn3)nc(-c3ccc(Cl)cc3)c2C#N)cc1 | 5.31 | –
31 | Cc1ccc(Nc2nc(SCc3cn(Cc4ccccc4Cl)nn3)nc(-c3ccc(Br)cc3)c2C#N)cc1 | 3.61 | –

— ChEMBL document CHEMBL4130548, “Exploration of 1,2,3-triazole-pyrimidine hybrids as potent reversal agents against ABCB1-mediated multidrug resistance” (Eur J Med Chem, 2018)
